PMC3293837, “Biophysical Property and Broad Anti-HIV Activity of Albuvirtide, a 3-Maleimimidopropionic Acid-Modified Peptide Fusion Inhibitor” (PLoS ONE, 2012)

Experiments:
[1] = system: HIV-1NL4-3 L33S infectious molecular clone; assay type: cell-based
Experimental: (§2) The mutant viruses were generated by transient transfection of NL4-3 plasmids into 293T cells. The virus stocks were harvested 48 hours post-transfection and quantified for TCID50. […] In brief, 100 TCID50 viruses were used to infect TZM-bl cells in the presence or absence of serially diluted peptides. Two days post-infection, the cells were harvested and lysed in reporter lysis buffer, and the luciferase activity was measured. The IC50 was calculated as described above using GraphPad Prism software (GraphPad Prism software Inc., San Diego, CA).

[2] = system: HIV-1 CRF01_AE pseudoviruses; assay type: cell-based; conditions: mean over CRF01_AE pseudoviruses of Table 2; TZM-bl
Text: (§1) A panel of plasmids encoding HIV-1 Envs were obtained through the AIDS Research and Reference Reagent Program (ARRRP), Division of AIDS, NIAID, NIH, including subtype A Env clones pSVIII-92RW020.5 and 92UG037.8 from Dr. B.H. Hahn; subtype B Env clones SC422661.8, TRO.11 and AC10.0.29 from Drs. D. Montefiori, F. Gao and M. Li, pRHPA4259.7 and pREJO4541.67 from Drs. B.H. Hahn and J.F. Salazar-Gonzalez, and pCAAN5342.A2 from Drs. B.H. Hahn and D.L. Kothe; subtype C Env clones Du172.17 and Du422.1 from Drs. D. Montefiori, F. Gao, S. Abdool Karim and G. Ramjee, CAP45.2.00.G3 from Drs. L. Morris, K. Mlisana and D. Montefiori, ZM197M.PB7 from Drs. B.H. Hahn, Y. Li and J.F. Salazar-Gonzalez, ZM109F.PB4 from Drs. E. Hunter and C. Derdeyn. Six CRF07_BC Env clones (CH064.20, CH070.1, CH091.9, CH110.2, CH119.10 and CH120.6) were generous gifts by Dr. Y. Shao in the Chinese Center for Disease Control and Prevention, Beijing, China. A panel of Env clones derived from subtype B′ (B01, B02, B04, and 43-22), CRF01_AE (SHX335.24, YN192.31, AE01, AE03, GX2010.36, GX11.13, GX2010.36H, BJ5.11), and CRF07_BC (BC02, BC03, BC05, BC07, BC14, SC19-15, BJ22-5, YN148R-9, XJ50-6, HB5-3) were kindly provided by Dr. Y. Wang from the National Institute for the Control of Pharmaceutical and Biological Products, Beijing, China.

[3] = system: HIV-1 subtype B′ pseudoviruses; assay type: cell-based; conditions: mean over subtype B′ pseudoviruses of Table 2; TZM-bl
Text: as §1

[4] = system: HIV-1 subtype A pseudoviruses; assay type: cell-based; conditions: mean over subtype A pseudoviruses of Table 1; TZM-bl
Text: as §1

[5] = system: HIV-1 CRF07_BC pseudoviruses; assay type: cell-based; conditions: mean over CRF07_BC pseudoviruses of Table 2; TZM-bl
Text: as §1

[6] = system: HIV-1 subtype B pseudoviruses; assay type: cell-based
Text: as §1

[7] = system: HIV-1 subtype C pseudoviruses; assay type: cell-based; conditions: mean over subtype C pseudoviruses of Table 1; TZM-bl
Text: as §1

[8] = system: HIV-1NL4-3 V38A/N42T pseudovirus; assay type: cell-based
Experimental: (§3) HIV-1 pseudoviruses were generated as described previously [32], [55]–[56]. Briefly, 293T cells (5×10^6 cells in 15 ml of growth medium in a T-75 culture flask) were cotransfected with 10 µg of an Env-expressing plasmid and 20 µg of a backbone plasmid pSG3deltaEnv that encodes Env-defective, luciferase-expressing HIV-1 genome using Lipofectamine 2000 reagent (Invitrogen). Pseudovirus-containing culture supernatants were harvested 48 hours after transfection and filtered by 0.45-mm pore size, and stored at −80°C in 1-ml aliquots until use. The 50% tissue culture infectious dose (TCID50) of a single thawed aliquot of each pseudovirus batch was determined in TZM-bl cells. […] Briefly, the peptides were prepared with ten series dilutions in a 3-fold stepwise manner and mixed with 100 TCID50 viruses and incubated 1 hour at room temperature. The mixture was added to TZM-bl cells (10^4/well) and incubation at 37°C for 48 hours. Luciferase activity was measured using luciferase assay regents (Promega, Medison, WI) and a Luminescence Counter (Promega) according to the manufacture's instructions.

[9] = system: HIV-1NL4-3 I37T pseudovirus; assay type: cell-based; conditions: HIV-1NL4-3 I37T; TZM-bl, 48 h; mean ± SD of three independent experiments
Experimental: as §3

[10] = system: HIV-1NL4-3 I37V/V38T infectious molecular clone; assay type: cell-based
Experimental: as §2

[11] = system: N36 (NHR target sequence); conditions: complex with N36; CD at 222 nm, 20–90°C, 1°C per min, 1 µM in PBS buffer
Experimental: CD spectroscopy was performed as previously described, [26]. […] The final peptide concentration was 10 µM in PBS buffer (pH 7.2). The isolated N- and C-peptides were also tested. The CD spectra of these individual peptides and peptide mixtures were acquired on MOS-450 spectropolarimeter (Bio-Logic, France) using a 1 nm bandwidth with a 1 nm step resolution from 190 to 260 nm at room temperature. The spectra were corrected by subtraction of a blank corresponding to the solvent. Data were averaged over three accumulations. […] Tm value was detected at protein concentration of 1 µM in PBS buffer.

[12] = system: HIV-1NL4-3 V38A pseudovirus; assay type: cell-based
Experimental: as §3

[13] = system: BC02 pseudovirus (CRF07_BC); assay type: cell-based, HIV-1; conditions: R5, TZM-bl, 48 h, triplicate, mean ± SD of at least three independent experiments
Text: as §1

[14] = system: CH070 pseudovirus (CRF07_BC); assay type: cell-based, HIV-1; conditions: R5, TZM-bl, 48 h, triplicate, mean ± SD of at least three independent experiments
Text: as §1

[15] = system: BJ5.11 pseudovirus (CRF01_AE); assay type: cell-based, HIV-1; conditions: BJ5.11, CRF01_AE, R5; TZM-bl, 48 h; triplicate, mean ± SD of at least three independent experiments
Text: as §1

[16] = system: B01 pseudovirus (subtype B′); assay type: cell-based, HIV-1; conditions: R5, TZM-bl, 48 h, triplicate, mean ± SD of at least three independent experiments
Text: as §1

[17] = system: HIV-1NL4-3 D36S/V38M pseudovirus; assay type: cell-based; conditions: HIV-1NL4-3 D36S/V38M; TZM-bl, 48 h; mean ± SD of three independent experiments
Experimental: The mutations were created using double-stranded DNA templates and selection of mutants with DpnI. For each mutation, the two primers contained the desired mutation and occupied the same starting and ending positions on opposite strands of the plasmid DNA. DNA synthesis was carried out by PCR in a 50-µL reaction volume using 1 µL of denatured plasmid template (1 ng/µL), 50 pmol of upper and lower primers and 5 U of high-fidelity thermostable polymerase PrimeStar (Takara, Dalian, China). PCR amplification was carried out for one cycle of denaturation at 98°C for 5 min, then 18 cycles of 98°C for 15 s and 68°C for 15 min, followed a final extension at 72°C for 10 min. The amplicons were treated with the restriction enzyme DpnI for 1 h at 37°C. DpnI-resistant molecules, which were rich in the desired mutants, were recovered by transforming Escherichia coli strain-DH5α to antibiotic resistance. The successful mutations were confirmed by sequencing.
as §3

[18] = system: HIV-1NL4-3 V38M pseudovirus; assay type: cell-based
Experimental: as §3

[19] = system: T20-resistant HIV-1NL4-3 variants; conditions: HIV-1NL4-3 with single or double gp41 mutations
Experimental: Luciferase activity was measured using luciferase assay regents (Promega, Medison, WI) and a Luminescence Counter (Promega) according to the manufacture's instructions.

[20] = infectious molecular clone, T20 up to 750 nM

For enfuvirtide, the IC50 ([1]; L33S infectious molecular clone of HIV-1NL4-3, TZM-bl, 100 TCID50, two days, mean ± SD of three independent experiments) was > 750 nM, the “inhibitory activity on L33S virus (in words)” value [1, 20] was “no any inhibitory activity at a concentration up to 750 nM” and the IC50 [2] was 68.1 nM. It also gave an IC50 [3] of 19.5 nM, an IC50 [4] of 14.5 nM and an IC50 [5] of 47.2 nM. The IC50 ([6]; mean over subtype B pseudoviruses of Table 1, TZM-bl) was 214 nM, the “sensitivity of some subtype B Envs (in words)” value ([6]; some Envs derived from subtype B, compared to other HIV-1 isolates) was “much less sensitive” and the IC50 [7] was 55.2 nM. For the same substance, the IC50 ([8]; HIV-1NL4-3 V38A/N42T, TZM-bl, 48 h, mean ± SD of three independent experiments) was > 3000 nM, the “resistance change with V38A/N42T (in words)” value ([8]; V38A/N42T double mutations) was “high-fold resistance changes” and the IC50 [9] was 300 ± 55.1 nM. For the same substance, the IC50 ([10]; I37V/V38T infectious molecular clone of HIV-1NL4-3, TZM-bl, 100 TCID50, two days, mean ± SD of three independent experiments) was > 750 nM, the “inhibitory activity on I37V/V38T virus (in words)” value [10, 20] was “no any inhibitory activity at a concentration up to 750 nM” and the “Tm of C-peptide/N36 complex” value [11] was “undetectable”. For the same substance, the IC50 ([12]; HIV-1NL4-3 V38A, TZM-bl, 48 h, mean ± SD of three independent experiments) was 1260 ± 182 nM, the “resistance change with V38A (in words)” value ([12]; V38A single mutation) was “high-fold resistance changes” and the IC50 [13] was 2.6 ± 0.48 nM. For the same substance, the IC50 [14] was 136 ± 36.4 nM, the IC50 [15] was 342 ± 132 nM and the IC50 [16] was 49.5 ± 2.41 nM. The IC50 [17] was 322 ± 60.3 nM, the IC50 ([18]; HIV-1NL4-3 V38M, TZM-bl, 48 h, mean ± SD of three independent experiments) was 646 ± 57.7 nM and the “resistance change with V38M (in words)” value ([18]; V38M single mutation) was “high-fold resistance changes”. The “activity on T20-resistant variants (in words)” value [19] was “high level resistance”.
